This is an account of results in US9326961B2, “Diet and methods for improving learning capacity, mood and behavior in mammals” (COAPE, LTD, priority 2010, dated 2016).

One data set concerns horse. The following applies: horses, cited from earlier work.
The next data set deals with dogs (slow learners). As to the kind of experiment: Discrimination learning, T-maze test (Test B) after three weeks on assigned diet. Format: in vivo, dog. The following applies: diet supplementation, compared with adding tryptophan to the diet. The procedure:
To determine the effect of diet on learning capability, 81 dogs of various ages, types and sex were recruited from dog training clubs and colleagues of the experimenter; however, one dog had to be withdrawn from the study. Inclusion into the study required that the dogs were not receiving any veterinary treatment or medication for behavioral problems. All dogs were in good health, having been fully vaccinated and wormed. Dogs were tested in simple tests that required no lengthy training time. […] Each dog's baseline learning capability was established on its performance in Test A. It was determined that 15 of the dogs were fast learners, while 65 were slow learners.
Each owner was supplied an information sheet advising how to introduce the new diet over a period of days, to ensure that no digestion problems occurred from a sudden change of food. The dogs remained on the assigned diet for a period of three weeks and their learning capability was re-evaluated according to their performance in Test B. Latency to learn the task was used as a measure of learning capability and specific displacement activities were monitored to evaluate the effect on various behavior patterns. […]
The dogs' latency to learn was measured in the time it took them, to achieve success, measured as 100% of correct responses in five consecutive trials. […]

For the compound `N[C@@H](Cc1c[nH]c2ccccc12)C(=O)O` [Tryptophan], the toxicity entry with horse (high doses given orally, presumably toxic hindgut metabolite) is “may cause hemolytic anemia”. In addition, the “effect on endurance capacity” value in the data set with horse (high doses) is on record as “reduce endurance capacity”. Besides, in the data set on horse (low doses), the behavioral effect result is listed as “mild excitement”.
As to `CC(C)C[C@H](N)C(=O)O` [leucine], the “enhancing serotonin levels in the brain, as measured by improved behavior and learning ability” value in the data set on dogs (slow learners) was “as effective in enhancing serotonin levels in the brain as adding tryptophan to the diet”.
